Results taken from patent US7138361B2, “Herbicidal heterocycles” (E. I. du Pont de Nemours and Company, priority 2000, dated 2006).

Test system: green foxtail (Setaria viridis)
Experiment: Test C postemergence
Format: in vivo
Outline: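 Herbicidal effect is a visual 0–100 score (100 = complete control) assigned versus untreated plants, 12 to 14 days after spraying in the greenhouse. Test compounds were applied in a non-phytotoxic, surfactant-containing solvent.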

In the case of `CC1(c2ccn(C3OCN(c4cccc(OC(F)(F)F)c4)C3=O)n2)CC1` (stereo not shown) [Compound 69], the “Plant response rating, Foxtail, Green” value (Rate 62 g/ha, scale 0 to 100) is reported as 0, the “Plant response rating, Foxtail, Green” value (Rate 125 g/ha, scale 0 to 100, 0 no effect, 100 complete control) is reported as 30 and the “Plant response rating, Foxtail, Green” value (Rate 250 g/ha, scale 0 to 100 (0 no effect, 100 complete control)) is reported as 30. The “Plant response rating, Foxtail, Green” value (Rate 500 g/ha, scale 0 to 100 (0 no effect, 100 complete control)) was 60.
